Data taken from patent US20060052582A1, “Identification of inhibitors of mitosis” (priority 2002, published 2006).
Values belong to the molecule of their own block, whether it stands above or below them.

How the values were obtained:
BHK cells = assay: Leptomycin B treatment, Nercc localization in transfected BHK cells; format: cell-based, hamster
Procedure: (§1) Cells grown on coverslips were rinsed with PBS, fixed in methanol at −20° C. for 15 min, rinsed twice with PBS and incubated for 30 min at room temperature with the appropriate dilution of primary antibody in PBS. To visualize endogenous Nercc, affinity purified anti-Nercc peptide antibodies (N1 and C1) were employed at 10 μg/ml. Microtubules were visualized with a α/β-tubulin specific antibody. Coverslips were washed with PBS, and incubated with labeled secondary antibodies from corresponding species in appropriate combination-fluorescein or rhodamine X-conjugated donkey anti-rabbit, Cy2 or rhodamine X-conjugated donkey anti-mouse (each at 1:450). Incubation was terminated with a rinse in PBS, and the coverslips were mounted on a microscope slide. For immunodetection blocking, Nercc1 C1- or N1-antibody was incubated for 30 min at 37° C. with a 15-fold molar excess of immunizing peptide. After centrifugation at 12,000× g for 10 min, the mixture was used for immunoblotting or immunocytochemistry, as indicated. To examine the effects of Leptomycin B treatment on Nercc localization, HeLa or BHK21 cells were grown to subconfluency on 25 mm round glass coverslips in DMEM supplemented with 10% fetal bovine serum and penicillin-streptomycin. BHK21 cells were transfected (Fugene, Roche Molecular Biochemicals) with the wild type FLAG Nercc; medium was replaced after 18 hours (h). […]

HeLa cells = assay: Leptomycin B treatment, endogenous Nercc localization in HeLa cells; format: cell-based, human
Procedure: as §1

p70S6K = assay: Activity of endogenous p70S6K immunoprecipitated from H4-II-E-C3 hepatoma cells; format: cell-based, rat; conditions: for IC50: insulin-stimulated H4 cells, insulin plus increasing inhibitor concentrations for 30 minutes, read-out: IC50 for inhibition of p70S6K activity
Procedure: (§2) Endogenous Nek6 polypeptide was immunoprecipitated from lysates of rat H4-II-E-C3 hepatoma cells following prior treatment for varying times (min) with 100 nM insulin (FIG. 12B), or insulin plus increasing concentrations of either wortmannin (FIG. 12C) or rapamycin (FIG. 12D) for 30 minutes. Nek6 kinase activity was measured using GST p70S6K ΔCT104 (Thr252Ala) as substrate (see, text for details). The activity of endogenous p70S6K αI/II, immunoprecipitated from the same lysates, was measured using a synthetic peptide substrate. Kinase activities are expressed as either fold increase in baseline activity (as in FIG. 12B; open circles show Nek6 activity; filled squares show p70S6K activity) or as histograms depicting the percent activity remaining for Nek6 (filled bars) or p70S6K (open bars) (as in FIGS. 12C and 12D).
The regulation of endogenous Nek6 activity in vivo was examined. An affinity purified anti-Nek6 peptide antibody raised against a polypeptide comprising an amino terminal murine Nek6 peptide AGQPSHMPHGGSPN (SEQ ID NO:30) conjugated to KLH via a cysteine residue as described above, gave highly specific immunoblots and was capable of modest immunoprecipitation of the endogenous Nek6 polypeptide, although at very low efficiency. Thus far, useful antibodies reactive with endogenous Nek7 have not been obtained. Nek6 immunoreactivity was evident in several commonly used mammalian cell lines including COS7 cells (FIG. 12A). […] Moreover, Nek6 had been isolated as a candidate p70S6 Kinase-Thr412 kinase, and insulin regulation of endogenous p70S6 Kinase (also referred to as p70S6K) had previously been characterized in this cell line (see, Price et al., Proc. Natl. Acad. Sci. USA, 87: 7944-7948 (1990)). Insulin generated a rapid, fifteen-fold activation of endogenous p70S6Kinase in serum-deprived H4 cells; under these conditions, however, no change occurred in the basal activity of immunoprecipitated endogenous Nek6 (FIG. 12B). […] The specific activity of Nek6 in H4 cells is, however, sensitive to serum withdrawal and declines progressively by 80% over 48 hours (FIG. 12E). […]

Nek6 [1] = assay: Nek6 kinase assay in vitro with p70S6K ΔCT104 as substrate; format: biochemical, human
Procedure: Transiently expressed FLAG Nek6 was incubated for 1 hour at 4° C. alone or with increasing quantities of either purified prokaryotic recombinant GST (lanes 6-8) or prokaryotic recombinant GST Nercc1 (732-979) (lanes 2-5). Nek6 activity was assayed using p70S6K ΔCT104 as substrate. Upper panel: mean±S.E.M. percent of control Nek6 activity. Lower panels: ^32P autoradiography, Coomassie stain of the GST Nercc1 (732-979) or GST proteins, and western blot of the FLAG Nek6 wild type.
Immunoprecipitates (IP) of recombinant Nek6 (using anti-FLAG or anti-myc antibodies) or endogenous Nek6 were washed three times in the extraction buffer containing 0.5 M LiCl, and twice in kinase buffer (50 mM MOPS pH 7.4, 10 mM MgCl2, 2 mM EGTA, 20 mM β-glycerophosphate). Kinase assays were performed in 30 μl kinase buffer containing 1.5 μg GST-p70S6K ΔCT104 (Thr252Ala) or MBP (0.2 mg/ml) and initiated by addition of [γ-^32P] ATP (5 μM final concentration at 4000 cpm/pmol). Reactions were incubated for 10 minutes at 30° C. and terminated by the addition of 4×SDS sample buffer. Kinase mixtures were resolved by SDS-PAGE, transferred to PVDF membrane, and Nek6 phosphotransferase activity determined by excising Coomassie stained bands corresponding to the substrate and measuring radioactive content by Cerenkov scintillation counting.

Nek6 [2] = assay: Activity of endogenous Nek6 immunoprecipitated from H4-II-E-C3 hepatoma cells; format: cell-based, rat; conditions: serum-deprived H4 cells; 100 nM insulin
Procedure: as §2
Immunoprecipitates (IP) of recombinant Nek6 (using anti-FLAG or anti-myc antibodies) or endogenous Nek6 were washed three times in the extraction buffer containing 0.5 M LiCl, and twice in kinase buffer (50 mM MOPS pH 7.4, 10 mM MgCl2, 2 mM EGTA, 20 mM β-glycerophosphate). […] Kinase mixtures were resolved by SDS-PAGE, transferred to PVDF membrane, and Nek6 phosphotransferase activity determined by excising Coomassie stained bands corresponding to the substrate and measuring radioactive content by Cerenkov scintillation counting. […]

Chain of Nek6 (Q9HC98 whole entry): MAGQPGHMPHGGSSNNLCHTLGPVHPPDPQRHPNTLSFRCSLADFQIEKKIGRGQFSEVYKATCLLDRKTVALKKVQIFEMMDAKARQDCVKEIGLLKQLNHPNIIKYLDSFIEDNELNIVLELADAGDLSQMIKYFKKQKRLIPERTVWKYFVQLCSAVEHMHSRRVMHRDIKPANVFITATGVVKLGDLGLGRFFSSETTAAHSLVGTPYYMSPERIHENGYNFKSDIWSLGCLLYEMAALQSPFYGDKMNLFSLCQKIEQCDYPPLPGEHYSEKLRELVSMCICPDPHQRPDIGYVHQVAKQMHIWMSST

Molecule: CCC(=C/[C@H](C)C/C=C/C(C)=C/[C@@H](C)C(=O)[C@@H](C)[C@H](O)[C@@H](C)C/C(C)=C/C(=O)O)/C=C/[C@@H]1OC(=O)C=C[C@@H]1C [Leptomycin B]
- endogenous RanBP1 fluorescence in the nucleus (BHK cells; 20 nM, 30 minutes incubation): increased dramatically
- localization of wild type Nercc (BHK cells; 2, 20 and 200 nM, 30 minutes to 24 hours): remained cytoplasmic
- response of endogenous Nercc localization (HeLa cells): lack of response

- IC50 (p70S6K): ~2 nM
Molecule: CO[C@H]1C[C@@H]2CC[C@@H](C)[C@@](O)(O2)C(=O)C(=O)N2CCCC[C@H]2C(=O)O[C@H]([C@H](C)C[C@@H]2CC[C@@H](O)[C@H](OC)C2)CC(=O)[C@H](C)/C=C(\C)[C@@H](O)[C@@H](OC)C(=O)[C@H](C)C[C@H](C)/C=C/C=C/C=C/1C [rapamycin]

Molecule: COC[C@H]1OC(=O)c2coc3c2[C@@]1(C)C1=C(C3=O)[C@@H]2CCC(=O)[C@@]2(C)C[C@H]1OC(C)=O [wortmannin]
- IC50 (p70S6K): ~30 nM

- mode of inhibition of Nek6 catalytic activity (Nek6 [1]): noncompetitive
Molecule: GST Nercc1 (732-979): fusion protein of GST linked to Nercc amino acids 732-979 of SEQ ID NO:2
- effect on enzymatic activity of preactivated wild type Nek6 (Nek6 [1]; concentrations far below those of p70S6K ΔCT104 substrate): substantial inhibition

Molecule: Insulin: insulin, used at 100 nM to stimulate H4 cells
- activation of endogenous p70S6Kinase (p70S6K; serum-deprived H4 cells, 100 nM insulin): fifteen-fold
- change in basal activity of immunoprecipitated endogenous Nek6 (Nek6 [2]): no change
